This is an account of results in the RepoRT retention time repository (doi:10.1021/acs.analchem.1c00972).

Series [1] is described as follows: RP, Waters ACQUITY UPLC BEH C18, 100 × 1 mm, 1.7 µm, 50 °C, 0.3 mL/min, estimated dead time 0.17 min; A: water + 0.1% formic acid + 20 mM ammonium formate; B: methanol + 0.1% formic acid + 20 mM ammonium formate; gradient (min/%B) 0/0 15/100 21/100 22/0 30/0. The settings on record: stereoisomer not certain.
Series [2] in a line: RP, Waters ACQUITY UPLC BEH C18, 100 × 1 mm, 1.7 µm, 50 °C, 0.3 mL/min, estimated dead time 0.17 min; A: water + 10 mM ammonium bicarbonate; B: 10% water + 90% methanol + 10 mM ammonium bicarbonate; gradient (min/%B) 0/0 15/100 21/100 22/0 30/0. The following applies: stereoisomer not certain.

As for `O=C1NC2C(=CC(O)C(O)C2O)c2cc3c(c(O)c21)OCO3` (stereo not given) [Narciclasine], the figures for the LC retention time in series [1] and in series [2] were 7.92 min and 7.93 min, respectively.
As to `COc1ccc(CCC(=O)c2c(O)cc(OC3OC(CO)C(O)C(O)C3OC3OC(C)C(O)C(O)C3O)cc2O)cc1O` (stereo not given) [Neohesperidin DC], the LC retention time in series [1] was 11.5 min; in series [2], 10.4 min.
The like results for `O=C(Nc1ccc([N+](=O)[O-])cc1Cl)c1cc(Cl)ccc1O` [Niclosamide] were, in that order, 16.7 min and 13.6 min.
As for `COC1CC(CC2CCC(C)C(C(C)C(=O)O)O2)OC2(OC(C)(C3CCC(C)(C4OC(C5OC(O)(CO)C(C)CC5C)CC4C)O3)CC2C)C1C` (stereo not given) [Nigericin], the LC retention time in series [1] is 18.8 min; in series [2], 19.7 min.
With `CC1=CC2OC3C(O)C(O)C(C)(C34CO4)C2(CO)C(O)C1=O` (stereo not given) [Nivalenol], the LC retention time in series [1] is 5.87 min; in series [2], 5.94 min.
Take `C#CC1(O)CCC2C3CCC4=CC(=O)CCC4C3CCC21C` (stereo not given) [Norethindrone]: the figures for the LC retention time in series [1] and in series [2] were 13.9 min and 14.2 min, respectively.
Regarding `C#CC1(OC(C)=O)CCC2C3CCC4=CC(=O)CCC4C3CCC21C` (stereo not given) [Norethisterone acetate], the LC retention time in series [1] is 15.4 min; in series [2] it was 15.7 min.
Consider `CNc1cnn(-c2cccc(C(F)(F)F)c2)c(=O)c1Cl` [Norflurazon], for which the LC retention time in series [1] was 13.3 min; in series [2], 13.5 min.
On to `C#CC1(OC(C)=O)CCC2C3CCC4=CC(=NO)CCC4C3CCC21CC` (stereo not given) [Norgestimate], for which the LC retention time in series [1] was 16.4 min; in series [2], 16.6 min.
The like results for `COc1ccc2c(c1OC)C(=O)OC2C1c2c(cc3c(c2OC)OCO3)CCN1C` (stereo not given) [Noscapin] were, in that order, 9.81 min and 14.8 min.
For the compound `CCCCC(CC)COC(=O)C(C#N)=C(c1ccccc1)c1ccccc1` (stereo not given) [Octocrylene], the LC retention time was 17.8 min in series [1] and 18.2 min in series [2].
The like results for `CC1COc2c(N3CCN(C)CC3)c(F)cc3c(=O)c(C(=O)O)cn1c23` (stereo not given) [Ofloxacin] were, in that order, 8.04 min and 9.6 min.
The like results for `COC1CC(OC2CCC3(C)C(CCC4C3CCC3(C)C(C5=CC(=O)OC5)C(OC(C)=O)CC43O)C2)OC(C)C1O` (stereo not given) [Oleandrin] were, in that order, 14.4 min and 14.7 min.
For the compound `CCCc1nc(C(C)(C)O)c(C(=O)O)n1Cc1ccc(-c2ccccc2-c2nn[nH]n2)cc1` [Olmesartan], the LC retention time in series [1] is 10.9 min; in series [2] it was 10.6 min.
In the case of `Cc1nccn1CC1CCc2c(c3ccccc3n2C)C1=O` (stereo not given) [Ondansetron], the LC retention time is 9.64 min in series [1] and 12.4 min in series [2].
On to `CCN(CC)C(=O)SCc1ccccc1Cl` [Orbencarb], for which the values for the LC retention time in series [1] and in series [2] were 15.9 min and 16.3 min, respectively.
In the case of `Cc1onc(-c2ccccc2)c1C(=O)NC1C(=O)N2C1SC(C)(C)C2C(=O)O` (stereo not given) [Oxacillin], the values for the LC retention time in series [1] and in series [2] were 12.7 min and 11.6 min, respectively.
Take `COCC(=O)N(c1c(C)cccc1C)N1CCOC1=O` [Oxadixyl]: the LC retention time in series [1] is 11 min; in series [2], 11.2 min.
In the case of `Cc1cc(C)nc(NC(=O)NS(=O)(=O)c2ccccc2C(=O)OC2COC2)n1` [Oxasulfuron], the LC retention time was 11.3 min in series [1] and 9.07 min in series [2].
On to `O=C1Nc2ccc(Cl)cc2C(c2ccccc2)=NC1O` (stereo not given) [Oxazepam], for which the LC retention time in series [1] was 13.2 min; in series [2], 13.5 min.
Turning to `CCN(CC)CC#CCOC(=O)C(O)(c1ccccc1)C1CCCCC1` (stereo not given) [Oxybutynin], the LC retention time in series [1] is 13.6 min; in series [2], 17.2 min.
Take `CC(C)(C)C(O)C(Cc1ccc(Cl)cc1)n1cncn1` (stereo not given) [Paclubutrazole]: the LC retention time was 14.4 min in series [1] and 14.6 min in series [2].
For `COc1ccc(Cc2nccc3cc(OC)c(OC)cc23)cc1OC` [Papaverin], the values for the LC retention time in series [1] and in series [2] were 9.77 min and 13.3 min, respectively.
With `CC1CC2C3CC(F)C4=CC(=O)C=CC4(C)C3C(O)CC2(C)C1(O)C(=O)CO` (stereo not given) [Paramethasone], the LC retention time in series [1] is 13.2 min; in series [2] it was 13.5 min.
Take `Fc1ccc(C2CCNCC2COc2ccc3c(c2)OCO3)cc1` (stereo not given) [Paroxetine]: the LC retention time in series [1] was 12.8 min; in series [2], 15 min.
With `C=C1C(=O)OC2C1CCC(C)=CCCC1(C)OC21` (stereo not given) [Parthenolid], the LC retention time in series [1] was 12.8 min; in series [2], 13.1 min.
The like results for `CC(=O)CCCCn1c(=O)c2c(ncn2C)n(C)c1=O` [Pentoxifylline] were, in that order, 9.87 min and 9.98 min.
With `CC(=O)c1cc2c(cc1C)C(C)(C)C(C)C2(C)C` (stereo not given) [Phantolide], the values for the LC retention time in series [1] and in series [2] were 17.5 min and 17.9 min, respectively.
The like results for `Cc1cc(=O)n(-c2ccccc2)n1C` [Phenazone] were, in that order, 8.9 min and 8.96 min.
Turning to `CNCC(O)c1cccc(O)c1` (stereo not given) [Phenylephrine], the LC retention time in series [1] is 2.01 min; in series [2], 5.43 min.
As for `CCOP(=S)(OCC)ON=C(C#N)c1ccccc1` [Phoxim], the LC retention time in series [1] was 15.9 min; in series [2] it was 14.4 min.
In the case of `Nc1c(Cl)c(Cl)nc(C(=O)O)c1Cl` [Picloram], the results for the LC retention time in series [1] and in series [2] were 7.28 min and 4.43 min, respectively.
In the case of `C=C(C)C1C2OC(=O)C1C1(O)CC3OC34C(=O)OC2C14C` (stereo not given) [Picrotoxinin], the LC retention time is 9.25 min in series [1] and 9.36 min in series [2].
Turning to `CCC1C(=O)OCC1Cc1cncn1C` (stereo not given) [Pilocarpine], the LC retention time in series [1] was 4.92 min; in series [2], 8.77 min.
The like results for `CC(C)NCC(O)COc1cccc2[nH]ccc12` (stereo not given) [Pindolol] were, in that order, 7.51 min and 10.2 min.
The like results for `CCc1ccc(CCOc2ccc(CC3SC(=O)NC3=O)cc2)nc1` (stereo not given) [Pioglitazone] were, in that order, 11.1 min and 13.3 min.
With `NC(=O)C1(N2CCCCC2)CCN(CCCC(=O)c2ccc(F)cc2)CC1` [Pipamperone], the values for the LC retention time in series [1] and in series [2] were 9.31 min and 14.5 min, respectively.
In the case of `CCCOP(=S)(OCCC)SCC(=O)N1CCCCC1C` (stereo not given) [Piperophos], the LC retention time in series [1] is 16.3 min; in series [2] it was 16.6 min.
The like results for `CCN(CC)c1nc(C)cc(OP(=S)(OC)OC)n1` [Pirimiphos-methyl] were, in that order, 15.8 min and 16.3 min.
As for `O=C(C1CCCCC1)N1CC(=O)N2CCc3ccccc3C2C1` (stereo not given) [Praziquantel], the LC retention time was 14 min in series [1] and 14.3 min in series [2].
As for `CC12C=CC(=O)C=C1CCC1C2C(=O)CC2(C)C1CCC2(O)C(=O)CO` (stereo not given) [Prednisone], the LC retention time in series [1] was 12 min; in series [2] it was 12.2 min.
Regarding `CCCNC(C)C(=O)Nc1ccccc1C` (stereo not given) [Prilocaine], the LC retention time in series [1] is 8.85 min; in series [2], 13.8 min.
For the compound `COC(=O)c1ccccc1S(=O)(=O)NC(=O)Nc1nc(OC(F)F)cc(OC(F)F)n1` [Primisufuron-methyl], the figures for the LC retention time in series [1] and in series [2] were 14.4 min and 12.6 min, respectively.
Consider `CC(=O)C1CCC2C3CCC4=CC(=O)CCC4(C)C3CCC12C` (stereo not given) [Progesterone], for which the LC retention time in series [1] was 15.5 min; in series [2] it was 15.9 min.
Turning to `CC(CN1c2ccccc2Sc2ccccc21)N(C)C` (stereo not given) [Promethazin], the LC retention time in series [1] was 12.5 min; in series [2] it was 16.8 min.
Regarding `COc1nc(NC(C)C)nc(NC(C)C)n1` [Prometon], the values for the LC retention time in series [1] and in series [2] were 12.2 min and 14.1 min, respectively.
The like results for `CC(C)Nc1nc(NC(C)C)[nH]c(=O)n1` [Propazine-2-hydroxy] were, in that order, 9.88 min and 12.2 min.
Consider `CCCOc1nn(C(=O)NS(=O)(=O)c2ccccc2C(=O)OC)c(=O)n1C` [Propoxycarbazone], for which the results for the LC retention time in series [1] and in series [2] were 11.8 min and 9.89 min, respectively.
Turning to `CCC(=O)OC(Cc1ccccc1)(c1ccccc1)C(C)CN(C)C` (stereo not given) [Propoxyphene], the LC retention time in series [1] was 12.5 min; in series [2], 16.8 min.
Regarding `Cc1c(C(C)C)c(=O)n(-c2ccccc2)n1C` [Propyphenazone], the LC retention time in series [1] is 12.3 min; in series [2], 12.6 min.
As for `OC(Cc1ccccc1Cl)(Cn1cncn1)C1(Cl)CC1` (stereo not given) [Prothioconazole-desthio], the LC retention time in series [1] is 15 min; in series [2], 15.3 min.
`CN1CCc2cc3c(cc2C(=O)Cc2ccc4c(c2C1)OCO4)OCO3` [Protopin]: the figures for the LC retention time in series [1] and in series [2] were 9.28 min and 13.6 min, respectively.
For the compound `CCOP(=S)(OCC)Oc1ccc(=O)n(-c2ccccc2)n1` [Pyridaphenthion], the LC retention time in series [1] is 14.6 min; in series [2], 14.8 min.
The like results for `CC=C1CC(C)C(O)(CO)C(=O)OCC2=CC[N+]3([O-])CCC(OC1=O)C23` (stereo not given) [Retrorsine N-oxide] were, in that order, 7.74 min and 8.61 min.
For `CC=C1CC(C)C(O)(CO)C(=O)OCC2=CCN3CCC(OC1=O)C23` (stereo not given) [Retrorsine], the LC retention time is 7.62 min in series [1] and 11.6 min in series [2].
